From ChEMBL document CHEMBL3352621, “Pentapeptide boronic acid inhibitors of Mycobacterium tuberculosis MycP1 protease” (Bioorg Med Chem Lett, 2014)
Activity calls are given as the source filed them. Peptide text beside a SMILES is read from it. * marks the point of attachment. boroAla = C[C@H](N*)B(O)O

What was measured:
[1] = test system: Mycobacterium tuberculosis
[2] = test system: Mycobacterium thermoresistibile
[3] = test system: Mycolicibacterium smegmatis

Measured: inhibition

CC(C)[C@H](NC(=O)[C@H](C)N)C(=O)N[C@@H](CCCCN)C(=O)N[C@@H](C)C(=O)N[C@@H](C)B(O)O (H-AVKA-boroAla)
inactive: all assays above
